Test results reported in article PMC9881875 (bioRxiv, 2023).
Residues, ends and D or L forms follow the SMILES beside them.

What was measured:
[1] = biological target: T1, DLG1 PDZ1 (DLG1–1) (Homo sapiens, UniProt Q12959); assay: Fluorescence polarization direct binding of reporter peptide, DLG1–1
[2] = biological target: T2, MAGI1 PDZ2 (MAGI1–2) (Homo sapiens, UniProt Q96QZ7); assay: Fluorescence polarization direct binding of reporter peptide, MAGI1–2
[3] = biological target: T3, PTPN3 PDZ (PTPN3) (Homo sapiens, UniProt P26045); assay: Fluorescence polarization direct binding of reporter peptide, PTPN3
T3 sequence (P26045 505-597): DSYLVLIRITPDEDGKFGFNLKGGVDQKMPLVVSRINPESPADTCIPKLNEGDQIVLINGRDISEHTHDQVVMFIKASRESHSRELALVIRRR

[4] = biological target: T4, SCRIB PDZ1 (SCRIB-1) (Homo sapiens, UniProt Q14160); assay: Fluorescence polarization direct binding of reporter peptide, SCRIB-1
[5] = biological target: T1, DLG1 PDZ1 (DLG1–1); assay: Fluorescence polarization competition, DLG1–1; format: binding
[6] = biological target: T4, SCRIB PDZ1 (SCRIB-1); assay: Fluorescence polarization competition, SCRIB-1; format: binding
[7] = biological target: SNX27 PDZ (SNX27) (Rattus norvegicus, UniProt Q8K4V4); assay: Fluorescence polarization competition, SNX27; format: binding
[8] = biological target: T2, MAGI1 PDZ2 (MAGI1–2); assay: Fluorescence polarization competition; format: binding
[9] = biological target: T3, PTPN3 PDZ (PTPN3); assay: Fluorescence polarization competition; format: binding
[10] = biological target: T5, NHERF1 PDZ1 (N1P1) (Homo sapiens, UniProt O14745); assay: Fluorescence polarization competition, N1P1
T5 sequence (O14745 1-139): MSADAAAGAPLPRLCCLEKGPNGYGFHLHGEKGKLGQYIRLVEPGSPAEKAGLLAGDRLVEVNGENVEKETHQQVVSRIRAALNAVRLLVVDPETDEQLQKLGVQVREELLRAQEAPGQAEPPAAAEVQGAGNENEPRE

[11] = biological target: NHERF2 PDZ2 (N2P2) (Homo sapiens, UniProt Q15599); assay: Fluorescence polarization competition, N2P2
[12] = biological target: CAL PDZ (Homo sapiens, UniProt Q9HD26); assay: Fluorescence polarization competition, CAL PDZ
[13] = biological target: T6, TIP-1 PDZ (Homo sapiens, UniProt O14907); assay: Fluorescence polarization competition, TIP-1 PDZ
T6 sequence (O14907 9-120): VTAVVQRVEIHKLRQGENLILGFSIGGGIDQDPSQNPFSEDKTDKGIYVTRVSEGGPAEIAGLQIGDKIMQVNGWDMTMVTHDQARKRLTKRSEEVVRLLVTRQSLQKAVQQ

Compound CC(C)C[C@H](NC(=O)[C@H](CCC(N)=O)NC(=O)[C@@H](NC(=O)[C@H](CCC(=O)O)NC(=O)[C@H](CCCNC(=N)N)NC(=O)[C@H](CCCNC(=N)N)NC(=O)[C@@H](NC(=O)[C@H](CCCNC(=N)N)NC(=O)[C@H](CO)NC(=O)[C@H](CO)NC(=S)Nc1ccc2c(c1)C(=O)OC21c2ccc(O)cc2Oc2cc(O)ccc21)[C@@H](C)O)[C@@H](C)O)C(=O)O [F*-HPV16 E6] has a Kd [1] of 17 ± 4 µM, a Kd [2] of 12 ± 4 µM and a Kd [3] of 2 ± 1 µM. For the same compound, the Kd [4] was 5.1 ± 1.7 µM.

For CC(C)C[C@H](NC(=O)[C@H](CCCNC(=N)N)NC(=O)[C@@H](NC(=O)[C@H](CC(=O)O)NC(=O)[C@H](CCC(N)=O)NC(=O)[C@H](CCCNC(=N)N)NC(=O)[C@@H](NC(=O)[C@H](CCCNC(=N)N)NC(=O)[C@H](CO)NC(=O)[C@@H](N)CO)[C@@H](C)O)[C@@H](C)O)C(=O)O [CFTRP5R] (H-SSRTRQDTRL-OH), the Ki [5] was 430 ± 200 µM, the Ki [6] was 50 ± 10 µM and the Ki [7] was 7.4 ± 4.5 µM. It also gave an IC50 [8] of 220 ± 50 µM, an IC50 [9] of 120 ± 20 µM and a Ki [10] of 1.8 ± 0.3 µM. The Ki [11] was 0.49 ± 0.38 µM.

With CC(C)C[C@H](NC(=O)[C@H](CCC(N)=O)NC(=O)[C@@H](NC(=O)[C@H](CCC(=O)O)NC(=O)[C@H](CCC(N)=O)NC(=O)[C@H](CCCNC(=N)N)NC(=O)[C@@H](NC(=O)[C@H](CCCNC(=N)N)NC(=O)[C@H](CO)NC(=O)[C@@H](N)CO)[C@@H](C)O)[C@@H](C)O)C(=O)O [HPVP4Q] (H-SSRTRQETQL-OH) the Ki [5] was 23 ± 6 µM, the Ki [6] was 13 ± 2 µM and the Ki [7] was 0.51 ± 0.22 µM. For the same compound, the IC50 [8] was 3.8 ± 2.1 µM, the IC50 [9] was 18 ± 5 µM and the Ki [10] was 21 ± 7 µM. It also gave a Ki [11] of 5.2 ± 0.6 µM, a Ki [12] of 56 ± 6 µM and a Ki [13] of 34 ± 2 µM.

Work on CC(C)C[C@H](NC(=O)[C@H](CCC(N)=O)NC(=O)[C@@H](NC(=O)[C@H](CC(=O)O)NC(=O)[C@H](CCC(N)=O)NC(=O)[C@@H](NC(=O)[C@@H](NC(=O)[C@H](CCCNC(=N)N)NC(=O)[C@H](CO)NC(=O)[C@@H](N)CO)[C@@H](C)O)C(C)C)[C@@H](C)O)C(=O)O [CFTRP1Q] (H-SSRTVQDTQL-OH) yielded a Ki [5] of 250 ± 150 µM, a Ki [6] of 150 ± 60 µM and a Ki [7] of 0.26 ± 0.05 µM. It also gave an IC50 [8] of 420 ± 210 µM, an IC50 [9] of 51 ± 14 µM and a Ki [10] of 25 ± 7 µM. It also gave a Ki [11] of 3.1 ± 0.5 µM.

Compound CC(C)C[C@H](NC(=O)[C@H](CCCNC(=N)N)NC(=O)[C@@H](NC(=O)[C@H](CCC(=O)O)NC(=O)[C@H](CCCNC(=N)N)NC(=O)[C@H](CCCNC(=N)N)NC(=O)[C@@H](NC(=O)[C@H](CCCNC(=N)N)NC(=O)[C@H](CO)NC(=O)[C@@H](N)CO)[C@@H](C)O)[C@@H](C)O)C(=O)O [HPVP1R] (H-SSRTRRETRL-OH) has a Ki [5] of 39 ± 11 µM, a Ki [6] of 13 ± 2 µM and a Ki [7] of 2.1 ± 0.7 µM. For the same compound, the IC50 [8] was 5.2 ± 2.4 µM, the IC50 [9] was 18 ± 1 µM and the Ki [10] was 8.8 ± 3.4 µM. It also gave a Ki [11] of 6.9 ± 1.1 µM, a Ki [12] of 42 ± 10 µM and a Ki [13] of 22 ± 5 µM.

For CC(C)C[C@H](NC(=O)[C@H](CCCNC(=N)N)NC(=O)[C@@H](NC(=O)[C@H](CC(=O)O)NC(=O)[C@H](CCCNC(=N)N)NC(=O)[C@@H](NC(=O)[C@@H](NC(=O)[C@H](CCCNC(=N)N)NC(=O)[C@H](CO)NC(=O)[C@@H](N)CO)[C@@H](C)O)C(C)C)[C@@H](C)O)C(=O)O [CFTRP4R] (H-SSRTVRDTRL-OH), the Ki [5] was 510 ± 230 µM, the Ki [6] was 370 ± 170 µM and the Ki [7] was 0.44 ± 0.06 µM. The IC50 [8] was 460 ± 200 µM, the IC50 [9] was 85 ± 39 µM and the Ki [10] was 6.9 ± 2.7 µM. It also gave a Ki [11] of 1.7 ± 0.5 µM.

Work on CC(C)C[C@H](NC(=O)[C@H](CCC(N)=O)NC(=O)[C@@H](NC(=O)[C@H](CCC(=O)O)NC(=O)[C@H](CCCNC(=N)N)NC(=O)[C@H](CCCNC(=N)N)NC(=O)[C@@H](NC(=O)[C@H](CCCNC(=N)N)NC(=O)[C@H](CO)NC(=O)[C@@H](N)CO)[C@@H](C)O)[C@@H](C)O)C(=O)O [HPV16 E6] yielded a Ki [5] of 22 ± 12 µM, a Ki [6] of 20 ± 7 µM and a Ki [7] of 1.5 ± 0.5 µM. It also gave an IC50 [8] of 3.7 ± 0.1 µM, an IC50 [9] of 10.1 µM and a Ki [10] of 100 ± 50 µM. For the same compound, the Ki [11] was 17 ± 6 µM and the Ki [13] was 11 ± 1 µM.

Work on CC(C)C[C@H](NC(=O)[C@H](CCC(N)=O)NC(=O)[C@@H](NC(=O)[C@H](CCC(=O)O)NC(=O)[C@H](CCCNC(=N)N)NC(=O)[C@@H](NC(=O)[C@@H](NC(=O)[C@H](CCCNC(=N)N)NC(=O)[C@H](CO)NC(=O)[C@@H](N)CO)[C@@H](C)O)C(C)C)[C@@H](C)O)C(=O)O [HPVP5V] (H-SSRTVRETQL-OH) yielded a Ki [5] of 13 ± 4 µM, a Ki [6] of 4.5 ± 2.8 µM and a Ki [7] of 0.11 ± 0.03 µM. For the same compound, the IC50 [8] was 4.4 ± 1.1 µM, the IC50 [9] was 3.4 ± 0.3 µM and the Ki [10] was 67 ± 28 µM. The Ki [11] was 7 ± 3.6 µM, the Ki [12] was 190 ± 10 µM and the Ki [13] was 35 ± 4 µM.
